From the Kinase Knowledgebase extract (Sharma et al. 2016)

Each compound was assayed against PIK3CG (human) (UniProt P48736) (assay: Assessment of PIK3CG Kinase Activity).
Sequence of PIK3CG (human) (P48736 whole entry, looked up): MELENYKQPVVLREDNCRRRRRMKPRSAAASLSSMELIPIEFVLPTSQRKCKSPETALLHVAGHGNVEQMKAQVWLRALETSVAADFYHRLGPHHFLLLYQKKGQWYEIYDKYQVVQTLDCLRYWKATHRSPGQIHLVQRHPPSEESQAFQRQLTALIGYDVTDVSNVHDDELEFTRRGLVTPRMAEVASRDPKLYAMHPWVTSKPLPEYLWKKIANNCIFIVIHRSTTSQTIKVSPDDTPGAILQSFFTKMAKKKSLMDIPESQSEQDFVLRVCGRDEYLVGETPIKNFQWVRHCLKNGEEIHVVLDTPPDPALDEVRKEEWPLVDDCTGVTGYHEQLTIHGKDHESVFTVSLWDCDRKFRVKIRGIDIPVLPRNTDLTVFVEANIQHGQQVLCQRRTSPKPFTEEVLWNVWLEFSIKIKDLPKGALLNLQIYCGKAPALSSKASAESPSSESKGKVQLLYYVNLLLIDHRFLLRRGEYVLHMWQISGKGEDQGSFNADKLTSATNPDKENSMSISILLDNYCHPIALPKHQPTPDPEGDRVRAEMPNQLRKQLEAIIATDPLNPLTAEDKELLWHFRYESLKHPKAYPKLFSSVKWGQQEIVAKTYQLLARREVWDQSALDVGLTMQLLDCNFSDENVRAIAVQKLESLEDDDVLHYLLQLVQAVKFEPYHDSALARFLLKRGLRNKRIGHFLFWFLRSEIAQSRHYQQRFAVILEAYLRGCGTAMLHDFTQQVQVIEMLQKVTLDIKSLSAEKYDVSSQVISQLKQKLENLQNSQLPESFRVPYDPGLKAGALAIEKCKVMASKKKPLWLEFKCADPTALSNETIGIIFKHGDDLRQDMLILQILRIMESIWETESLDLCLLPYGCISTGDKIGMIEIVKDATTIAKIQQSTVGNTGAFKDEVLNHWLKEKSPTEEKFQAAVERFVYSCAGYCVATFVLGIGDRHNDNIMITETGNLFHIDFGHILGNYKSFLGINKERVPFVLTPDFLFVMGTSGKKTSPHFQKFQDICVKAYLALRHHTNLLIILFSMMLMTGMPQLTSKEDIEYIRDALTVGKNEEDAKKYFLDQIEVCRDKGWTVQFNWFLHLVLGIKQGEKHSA

IC50, < 0.8 µM:
CC(=O)Nc1nc2c(s1)-c1nc(C(F)(F)F)ncc1CC2
CC(=O)Nc1nc2c(s1)-c1c(cnn1-c1ccc(C(=O)N[C@H](CCCCNC(=N)N)C(N)=O)cc1Cl)CC2
COc1cc(-n2ncc3c2-c2sc(NC(C)=O)nc2CC3)nc(OC)n1
CCN1CCCC1CNCC(=O)Nc1nc2c(s1)-c1c(cnn1-c1ccccc1)CC2 (stereo not drawn)
CC(=O)Nc1nc2c(s1)-c1c(cnn1-c1ccc(CC(=O)NCc3nc4ccccc4n3C)cc1)CC2
CC(=O)Nc1nc2c(s1)-c1c(cnn1-c1ccc(C(=O)N3CCCC(CO)C3)cc1)CC2 (stereo not drawn)
CC(=O)Nc1nc2c(s1)-c1c(cnn1-c1ccc(C(=O)N[C@H]3CC[C@H](N(Cc4ccccc4)Cc4ccccc4)CC3)cc1)CC2
CC(=O)Nc1nc2c(s1)-c1c(cnn1-c1ccc(N3C4CCC3CC(O)C4)cc1)CC2 (stereo not drawn)
CC(=O)Nc1nc2c(s1)-c1c(cnn1-c1cc(F)ccc1C)CC2
Nc1nc2c(s1)-c1c(cnn1-c1ccc([N+](=O)[O-])cc1)CC2
CC(=O)Nc1nc2c(s1)-c1nc(COc3ccccc3Cl)ncc1CC2
CC(=O)Nc1nc2c(s1)-c1c(cnn1-c1ccc(C(=O)N[C@H](CC(=O)O)C(N)=O)cc1Cl)CC2
CC(=O)Nc1nc2c(s1)-c1c(c(C)nn1-c1ccccc1Cl)CC2
CC(=O)Nc1nc2c(s1)-c1c(cnn1-c1ccc(C(=O)N[C@H]3CC[C@H](N4CCN(c5ccccc5)CC4)CC3)cc1)CC2
CC(=O)Nc1nc2c(s1)-c1c(cnn1-c1ccc(C(=O)N3CCC(N4CCCS4(=O)=O)CC3)cc1)CC2
CCSc1ncc2c(n1)-c1sc(NC(C)=O)nc1CC2
O=C(CCN1CCCCC1)Nc1nc2c(s1)-c1c(cnn1-c1ccccc1)CC2
CC(=O)Nc1nc2c(s1)-c1nc(N(C)CCN(C)C)ncc1CC2
CC(=O)Nc1nc2c(s1)-c1c(c(-c3cn(C)cn3)nn1-c1ccccc1C)CC2
CC(=O)Nc1nc2c(s1)-c1nc(N3CCOCC3)ncc1C2
CCN(CC)C(=O)C1CCCCN1C(=O)c1ccc(-n2ncc3c2-c2sc(NC(C)=O)nc2CC3)cc1 (stereo not drawn)
CN(C)CCNC(=O)Nc1nc2c(s1)-c1c(cnn1-c1ccccc1)CC2
CC(=O)Nc1nc2c(s1)-c1cc(NC(C)C)ccc1CC2
CC(=O)Nc1nc2c(s1)-c1c(cnn1-c1ccc(CC(=O)N3CCNC(=O)C3)cc1)CC2
CC(=O)Nc1nc2c(s1)-c1c(cnn1-c1ccncc1)CC2
CC(=O)Nc1nc2c(s1)-c1c(cnn1-c1ccc(C(C)(C)C)cc1)CC2
O=C(Nc1nc2c(s1)-c1c(cnn1-c1ccccc1)CC2)N1CCOCC1
CNC(=O)Nc1nc2c(s1)-c1nc(-c3ccccc3)ncc1CC2
CC(=O)Nc1nc2c(s1)-c1c(cnn1-c1ccccc1Br)C2
CC(=O)Nc1nc2c(s1)-c1c(c(-c3ccoc3)nn1-c1ccccc1Cl)CC2
CC(=O)Nc1nc2c(s1)-c1c(c(-c3ccccc3)nn1-c1ccccc1F)CC2
CCNC(=O)Nc1nc2c(s1)-c1c(cnn1-c1ccccc1)CC2
CC(=O)Nc1nc2c(s1)-c1c(cnn1-c1ccc(C(=O)N3CCC4(CCN(C)C4)C3)cc1)CC2 (stereo not drawn)
CC(=O)Nc1nc2c(s1)-c1nc(N3CCCC(CN)C3)ncc1CC2 (stereo not drawn)
CC(=O)Nc1nc2c(s1)-c1c(cnn1-c1ccccc1C(F)(F)F)C2
CC(=O)Nc1nc2c(s1)-c1c(cnn1-c1ccc(C(=O)N[C@H](CCC(=O)O)C(N)=O)cc1Cl)CC2
CC(=O)Nc1nc2c(s1)-c1c(cnn1-c1ccc(C(=O)N(C)Cc3cnn(C)c3)cc1)CC2
CC(=O)Nc1nc2c(s1)-c1c(cnn1-c1ccc(C(=O)NCc3cccnc3)cc1)CC2
CC(=O)Nc1nc2c(s1)-c1c(cnn1-c1ccc3ncsc3c1)CC2
CC(=O)Nc1nc2c(s1)-c1nn(C(C)=O)cc1CC2
CC(=O)Nc1nc2c(s1)-c1c(c([C@H]3CCCO3)nn1-c1ccc(C(=O)NCc3ccncc3)cc1Cl)CC2
CN(C)CCN(C)C(=O)Nc1nc2c(s1)-c1c(cnn1-c1ccccc1Cl)C2
CC(=O)Nc1nc2c(s1)-c1nc(N(C)CCN3CCN(C)CC3)ncc1CC2
CC(=O)Nc1nc2c(s1)-c1c(cnn1-c1ccccc1)C2
CC(=O)Nc1nc2c(s1)-c1c(cnn1-c1ccc(C(=O)N(C)Cc3ccccn3)cc1)CC2
CC(=O)Nc1nc2c(s1)-c1c(cnn1-c1ccc(C(=O)Nc3ccc(NC(C)(C)CN(C)C)cc3)cc1)CC2
CC(=O)Nc1nc2c(s1)-c1nc(C(C)C)nc(O)c1CC2
C=CCNC(=O)c1ccc(-n2ncc3c2-c2sc(NC(C)=O)nc2CC3)cc1
CC(=O)Nc1nc2c(s1)-c1nc(N(C)CCCN(C)C)ncc1CC2
CC(=O)Nc1nc2c(s1)-c1c(cnn1-c1ccc(C(=O)NCCCN3CCOCC3)cc1)CC2
CC(=O)Nc1nc2c(s1)-c1c(cnn1-c1ccc(C(=O)N3CCC(N4CCCCC4)CC3)cc1Cl)CC2
CC(=O)Nc1nc2c(s1)-c1c(cnn1-c1ccc(S(=O)(=O)N3CCN(C)CC3)cc1)CC2
CC(=O)Nc1nc2c(s1)-c1c(cnn1-c1ccc(C(=O)N(C)Cc3nccn3C)cc1)CC2
CC(=O)Nc1nc2c(s1)-c1c(c(C(=O)N[C@@H]3CCOC3=O)nn1-c1ccccc1)CC2
CC(=O)Nc1nc2c(s1)-c1c(cnn1-c1ccc(C(=O)N3CCC(N4CCCCC4)CC3)cc1)CC2
CC(=O)Nc1nc2c(s1)-c1c(cnn1-c1ccccc1F)C2
CC(=O)Nc1nc2c(s1)-c1nc(-c3ccccc3)[nH]c(=O)c1CC2
CC(=O)Nc1nc2c(s1)-c1c(cnn1-c1ccc(C(=O)N[C@@H](CCC(=O)O)C(N)=O)cc1Cl)CC2
O=C(Nc1nc2c(s1)-c1c(cnn1-c1ccccc1)C2)N1CCCCC1
CC(=O)Nc1nc2c(s1)-c1nn(C(=O)c3ccccc3)cc1CC2
CC(=O)Nc1nc2c(s1)-c1c(cnn1-c1cc(O)cc(Cl)c1)CC2
CC(=O)Nc1nc2c(s1)-c1c(cnn1-c1ccccc1C(C)C)C2
CC(=O)Nc1nc2c(s1)-c1c(cnn1-c1ccccc1Cl)C2
CC(=O)Nc1nc2c(s1)-c1c(cnn1-c1ccc(CC(=O)NCCN3CCCC3=O)cc1)CC2
CC(=O)Nc1nc2c(s1)-c1c(cnn1-c1ccc(CC(=O)N(C)Cc3ccccn3)cc1)CC2
CC(=O)Nc1nc2c(s1)-c1nc(NC3CCN(C)CC3)ncc1CC2
CC(=O)Nc1nc2c(s1)-c1c(cnn1-c1ccc(C(=O)N[C@H](C(N)=O)C(C)C)cc1Cl)CC2
CC(=O)Nc1nc2c(s1)-c1nc(-c3cccc(C)c3)ncc1CC2
Cc1ccccc1-c1ncc2c(n1)-c1sc(NC(=O)N(C)C)nc1CC2
CC(=O)Nc1nc2c(s1)-c1c(cnn1-c1ccc3nc[nH]c3c1)CC2
CC(=O)Nc1nc2c(s1)-c1c(cnn1-c1ccc(CC(=O)N3CCN(c4ccncc4)CC3)cc1)CC2
CCCC(=O)n1ncc2c1-c1sc(NC(C)=O)nc1CC2
CCC(=O)Nc1nc2c(s1)-c1c(cnn1-c1ccccc1)CC2
CC(=O)Nc1nc2c(s1)-c1c(cnn1-c1ccc(C(=O)NC(C)(C)CN3CCCCC3)cc1)CC2
NC(=O)Nc1nc2c(s1)-c1c(cnn1-c1ccccc1)CC2
CC(=O)Nc1nc2c(s1)-c1c(c(C)nn1-c1ccccc1C(F)(F)F)CC2
CC(=O)Nc1nc2c(s1)-c1c(cnn1-c1ccc(C(=O)N(C)CC#N)cc1)CC2
CC(=O)Nc1nc2c(s1)-c1nn(-c3ccccc3)c(-c3cn(C)cn3)c1CC2
CC(=O)Nc1nc2c(s1)-c1c(cnn1-c1ccc(C(=O)N3CCc4ccccc4C3)cc1)CC2
CC(=O)Nc1nc2c(s1)-c1c(cnn1-c1ccc(CC(=O)NCc3nc4ccccc4[nH]3)cc1)CC2
CC(=O)Nc1nc2c(s1)-c1c(cnn1-c1ccc(C(=O)N[C@H]3CC[C@H](N)CC3)cc1)CC2
CC(=O)Nc1nc2c(s1)-c1c(cnn1-c1ccc(C(=O)N[C@H](C(N)=O)c3ccccc3)cc1Cl)CC2
CC(=O)Nc1nc2c(s1)-c1nn(C(=O)C3CC3)cc1CC2
CC(=O)Nc1nc2c(s1)-c1c(cnn1-c1ccc(C(=O)N[C@H]3CC[C@@H](N4CCN(CC5CC5)CC4)CC3)cc1)CC2
CC(=O)Nc1nc2c(s1)-c1c(c(-c3cn(C)cn3)nn1-c1ccccc1)CC2
CC(=O)Nc1nc2c(s1)-c1c(cnn1-c1ccc(C(=O)N3CCS(=O)(=O)CC3)cc1)CC2
CC(=O)Nc1nc2c(s1)-c1nc(-n3cccn3)ncc1CC2
COc1ccccc1-c1ncc2c(n1)-c1sc(NC(C)=O)nc1CC2
CC(=O)Nc1nc2c(s1)-c1c(cnn1-c1ccc(C(=O)N3CCC(NC(=O)c4ccccc4)CC3)cc1)CC2
CC(=O)Nc1nc2c(s1)-c1c(cnn1-c1ccc(CC(=O)N3CCC4(CC3)CNC(=O)O4)cc1)CC2
CC(=O)Nc1nc2c(s1)-c1c(c(-c3ccccn3)nn1-c1ccccc1C(F)(F)F)CC2
CC(=O)Nc1nc2c(s1)-c1c(cnn1-c1ccc(C(=O)NCCc3c[nH]cn3)cc1)CC2
CC(=O)Nc1nc2c(s1)-c1c(cnn1-c1ccc(C(=O)N[C@H]3CC[C@H](N4CCN(C)CC4)CC3)cc1)CC2
CC(=O)Nc1nc2c(s1)-c1c(cnn1-c1ccc(CC(=O)N(C)CC(=O)N(C)C)cc1)CC2
CC(=O)Nc1nc2c(s1)-c1c(cnn1-c1ccc(CC(=O)N3CCC(CO)CC3)cc1)CC2
CCC(=O)Nc1nc2c(s1)-c1nc(-c3ccccc3)ncc1CC2
O=C(NCCn1ccnc1)Nc1nc2c(s1)-c1c(cnn1-c1ccccc1Cl)C2
CC(=O)Nc1nc2c(s1)-c1c(cnn1-c1ccc(C(=O)NCc3ccnn3C)cc1)CC2
